Consider one molecule from publication PMC5749554 (Drug Design, Development and Therapy, 2017).

Type in all cases: biochemical
Holding throughout (conditions): liver microsomes

One data set addresses T1, CYP1A2 (HLM) (Homo sapiens, UniProt P05177).
T1 sequence (P05177 2-516): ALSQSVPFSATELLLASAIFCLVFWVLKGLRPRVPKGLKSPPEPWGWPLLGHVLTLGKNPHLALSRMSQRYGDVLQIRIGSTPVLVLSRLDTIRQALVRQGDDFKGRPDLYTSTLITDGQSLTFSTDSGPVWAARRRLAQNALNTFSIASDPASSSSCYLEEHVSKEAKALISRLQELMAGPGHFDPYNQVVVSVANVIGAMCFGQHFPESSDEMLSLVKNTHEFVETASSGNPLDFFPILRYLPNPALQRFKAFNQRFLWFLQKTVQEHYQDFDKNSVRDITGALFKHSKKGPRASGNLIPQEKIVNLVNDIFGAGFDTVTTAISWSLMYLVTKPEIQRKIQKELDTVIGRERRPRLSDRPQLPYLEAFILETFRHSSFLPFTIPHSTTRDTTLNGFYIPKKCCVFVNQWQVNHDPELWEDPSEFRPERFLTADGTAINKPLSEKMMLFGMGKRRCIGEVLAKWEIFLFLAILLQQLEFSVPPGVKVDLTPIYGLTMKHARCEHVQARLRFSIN
Put plainly: cocktail probe-substrate assay, HPLC.

The target in data set [1] is T2, CYP2C9 (HLM) (Homo sapiens, UniProt P11712). Put plainly: HPLC-UV of 4-hydroxytolbutamide.
Data set [2] addresses T3, CYP2D6 (HLM) (Homo sapiens, UniProt P10635). Put plainly: HPLC-MS/MS of alpha-hydroxymetoprolol.
The target in data set [3] is T3, CYP2D6 (HLM). The data set can be described thus: cocktail probe-substrate assay, HPLC.
A further data set deals with CYP3A4 (HLM) (Homo sapiens, UniProt P08684). The data set can be described thus: cocktail probe-substrate assay, HPLC.
Another data set concerns the target CYP2E1 (HLM) (Homo sapiens, UniProt P05181). The data set can be described thus: cocktail probe-substrate assay, HPLC.
Data set [4] concerns the target T2, CYP2C9 (HLM). The data set can be described thus: cocktail probe-substrate assay, HPLC.

Bounds are passed on as bounds.

T2 sequence (P11712 whole entry): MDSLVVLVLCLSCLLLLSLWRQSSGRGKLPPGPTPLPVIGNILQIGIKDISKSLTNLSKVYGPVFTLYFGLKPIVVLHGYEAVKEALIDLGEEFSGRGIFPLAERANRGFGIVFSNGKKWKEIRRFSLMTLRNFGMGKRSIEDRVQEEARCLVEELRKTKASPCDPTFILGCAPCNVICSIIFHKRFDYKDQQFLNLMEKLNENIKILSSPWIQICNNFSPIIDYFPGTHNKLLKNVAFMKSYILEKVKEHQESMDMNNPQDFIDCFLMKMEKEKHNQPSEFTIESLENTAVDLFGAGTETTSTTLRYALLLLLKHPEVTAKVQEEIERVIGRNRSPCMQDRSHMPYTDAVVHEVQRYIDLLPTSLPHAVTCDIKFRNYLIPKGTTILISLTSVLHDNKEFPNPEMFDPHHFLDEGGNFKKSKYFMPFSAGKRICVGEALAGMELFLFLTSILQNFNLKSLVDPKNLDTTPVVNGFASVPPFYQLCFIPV
T3 sequence (P10635 whole entry): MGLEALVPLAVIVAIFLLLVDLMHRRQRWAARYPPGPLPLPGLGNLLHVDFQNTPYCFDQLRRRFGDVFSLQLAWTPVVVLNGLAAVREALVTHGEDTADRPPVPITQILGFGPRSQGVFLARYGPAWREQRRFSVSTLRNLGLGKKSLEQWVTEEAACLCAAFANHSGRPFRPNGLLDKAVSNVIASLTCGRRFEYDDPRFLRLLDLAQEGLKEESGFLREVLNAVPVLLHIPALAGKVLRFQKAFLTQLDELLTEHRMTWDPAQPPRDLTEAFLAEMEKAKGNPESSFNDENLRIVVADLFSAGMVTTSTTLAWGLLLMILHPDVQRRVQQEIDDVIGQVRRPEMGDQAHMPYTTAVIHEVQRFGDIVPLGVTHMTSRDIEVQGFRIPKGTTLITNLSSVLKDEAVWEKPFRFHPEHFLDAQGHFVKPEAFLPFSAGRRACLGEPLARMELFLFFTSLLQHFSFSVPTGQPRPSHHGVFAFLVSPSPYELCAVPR
Chain of CYP3A4 (HLM) (P08684 2-503): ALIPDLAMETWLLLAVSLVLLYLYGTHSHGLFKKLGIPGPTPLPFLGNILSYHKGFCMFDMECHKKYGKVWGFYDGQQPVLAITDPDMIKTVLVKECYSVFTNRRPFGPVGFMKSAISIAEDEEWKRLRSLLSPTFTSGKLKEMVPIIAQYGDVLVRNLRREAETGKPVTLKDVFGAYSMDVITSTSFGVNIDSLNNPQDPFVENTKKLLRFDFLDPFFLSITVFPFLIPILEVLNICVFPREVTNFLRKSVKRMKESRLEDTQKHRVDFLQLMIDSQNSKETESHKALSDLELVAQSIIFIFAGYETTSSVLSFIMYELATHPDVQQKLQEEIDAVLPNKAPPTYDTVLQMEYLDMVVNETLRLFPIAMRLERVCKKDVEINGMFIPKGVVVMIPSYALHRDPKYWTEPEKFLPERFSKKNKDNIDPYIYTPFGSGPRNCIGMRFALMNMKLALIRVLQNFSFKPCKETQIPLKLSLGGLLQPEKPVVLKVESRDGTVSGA
Chain of CYP2E1 (HLM) (P05181 whole entry): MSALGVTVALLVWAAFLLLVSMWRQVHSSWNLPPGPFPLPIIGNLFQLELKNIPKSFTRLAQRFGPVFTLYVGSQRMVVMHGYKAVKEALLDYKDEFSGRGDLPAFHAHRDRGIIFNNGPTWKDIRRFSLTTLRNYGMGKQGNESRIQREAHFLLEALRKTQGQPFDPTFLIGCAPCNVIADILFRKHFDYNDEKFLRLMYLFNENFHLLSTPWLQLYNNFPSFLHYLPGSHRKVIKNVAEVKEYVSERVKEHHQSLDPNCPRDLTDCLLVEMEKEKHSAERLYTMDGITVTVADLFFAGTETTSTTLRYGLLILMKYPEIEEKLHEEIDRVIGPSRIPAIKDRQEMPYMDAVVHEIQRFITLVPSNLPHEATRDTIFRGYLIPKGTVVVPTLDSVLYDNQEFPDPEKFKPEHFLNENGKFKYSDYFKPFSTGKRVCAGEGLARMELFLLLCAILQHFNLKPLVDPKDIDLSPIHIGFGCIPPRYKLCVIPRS

In the case of `COc1cc2c(cc1OC)-c1cc3ccc4c(c3c[n+]1CC2)OCO4` [Epiberberine], the IC50 against CYP1A2 (HLM) was more than 100 µM; against CYP2D6 (HLM) [3] it was 11.9 µM; on CYP3A4 (HLM), 81.5 µM; against CYP2E1 (HLM) it was 66.3 µM; against CYP2C9 (HLM) [4], 8.18 µM. For the same molecule, the inhibitory constant (Ki) on CYP2C9 (HLM) [1] is 5.64 µM; at CYP2D6 (HLM) [2], 25.4 µM.

In general, IC50 refers to the point on the concentration scale where inhibition reaches its midpoint. One may read the Ki as a measure of affinity in units of concentration, obtained from inhibition or displacement. Low values mean a stronger hold on the target, high ones a looser hold on the target.
